Experimental data published in patent US20250092360A1, “METHODS AND COMPOSITIONS FOR GENERATING SOMATOSTATIN+ INTERNEURONS FROM HUMAN FOREBRAIN NEURAL PROGENITOR CELLS” (Trailhead Biosystems Inc., priority 2023, published 2025).
Entries after “also recorded” stand apart in the source; their conditions may differ.

Experiments:
[1] = system: human pluripotent stem cells; assay: HD-DoE stage 1, additional experiment: FEZF2 expression; assay type: cell-based; conditions: for impact on expression of FEZF2: dynamic profile, in words; for factor contribution, expression of FEZF2: positive impact, additional stage 1 experiment optimized for FEZF2
Outline: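 Human pluripotent stem cells were exposed for three days to DoE-designed combinations of effectors in basal medium, including LDN193189, PD173074, BLU9931, purmorphamine, CHIR99021, XAV939, tofacitinib and GO6983 among others. Gene expression was measured by qPCR. Values were normalized and modelled by partial least squares regression against the effector design.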

[2] = system: medial ganglionic eminence (MGE)-derived neural progenitors; assay: HD-DoE stage 4, 12-factor experiment: SOX6 expression; assay type: cell-based, human; conditions: for impact on expression of SOX6: dynamic profile, in words; for factor contribution, expression of SOX6: significant negative effect, model optimized for maximal SOX6
[3] = system: stage 2 neural stem cells; assay: Factor criticality analysis, stage 3 recipe; assay type: cell-based, human; conditions: other five stage 3 factors present
[4] = system: stage 2 neural stem cells; assay: HD-DoE stage 3 experiment: ASCL1, LHX6, DLX1 expression; assay type: cell-based, human

Structure (SMILES) | impact on expression of FEZF2 [1] | factor contribution, expression of FEZF2 [1] | impact on expression of SOX6 [2] | factor contribution, expression of SOX6 [2] | expression level of DLX1 when the factor is removed ([3]; 220 with all six factors) | expression level of LHX6 when the factor is removed ([3]; 240 with all six factors) | expression level of ASCL1 when the factor is removed ([3]; 1650 with all six factors) | impact on expression of ASCL1 ([4]; dynamic profile, in words) | impact on expression of DLX1 ([4]; dynamic profile, in words) | impact on expression of LHX6 ([4]; dynamic profile, in words) | factor contribution, expression of ASCL1 ([4]; positive, model optimized for maximum ASCL1 at 1700)
c1ccc2c(-c3cnn4cc(-c5ccc(N6CCNCC6)cc5)cnc34)ccnc2c1 [LDN193189] | positive impact | 18 | negative effect | 9.8 | – | – | – | – | – | – | –
O=C(NOC[C@H](O)CO)c1ccc(F)c(F)c1Nc1ccc(I)cc1F [PD0325901] | positive impact | 15 | negative effect | 5.1 | – | – | – | – | – | – | –
c1ccc2c(Oc3nc(Nc4ccc(N5CCOCC5)cc4)c4ncn(C5CCCCC5)c4n3)cccc2c1 [Purmorphamine] | positive impact | 11 | – | – | stayed the same | 190 | 1200 | positive trends; also recorded: Positive impact | did not have a significant negative impact | positive trends; also recorded: Positive impact | 12.7
